# Laboratory results from patent US12336982B2 (RODEO THERAPEUTICS CORPORATION, priority 2018, dated 2025).
# pIC50: −log10 of the molar value.
# Molecular target: T1, recombinant 15-PGDH (Homo sapiens, UniProt P15428)
# T1 sequence (P15428 1-266): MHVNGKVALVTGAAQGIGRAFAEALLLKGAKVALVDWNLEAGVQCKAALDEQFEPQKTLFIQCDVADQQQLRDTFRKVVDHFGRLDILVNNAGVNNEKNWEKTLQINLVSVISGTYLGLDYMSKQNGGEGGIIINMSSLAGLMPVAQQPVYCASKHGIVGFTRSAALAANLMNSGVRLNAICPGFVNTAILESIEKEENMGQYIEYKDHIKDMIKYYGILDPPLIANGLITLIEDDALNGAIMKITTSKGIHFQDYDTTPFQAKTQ
# Format: biochemical
# Details: recombinant human 15-PGDH, in vitro; read-out: PDGH Assay-IC50
# Description: The Recombinant 15-PGDH is human unless otherwise specified.
row,pIC50,Compound
1,> 8.60,COC(=O)Nc1ccc(-c2cc(-c3ccnn3C)c3c(N)c([S+]([O-])C4CCC4)sc3n2)cn1 (stereo not shown) [Example 392]
2,8.00 to 8.60,COCC[S+]([O-])c1sc2nc(-c3ccc(NC(C)=O)nc3)cc(-c3ccnn3C)c2c1N (stereo not shown) [Example 393]
3,> 8.60,COCC[S+]([O-])c1sc2nc(-c3cn[nH]c(=O)c3)cc(-c3ccccc3)c2c1N (stereo not shown) [Example 394]
4,> 8.60,Nc1c([S+]([O-])C2CCC2)sc2nc(-c3cn[nH]c(=O)c3)cc(C3CCC3)c12 (stereo not shown) [Example 395]
5,> 8.60,COCC[S+]([O-])c1sc2nc(-c3cnn(C)c(=O)c3)cc(C3CCC3)c2c1N (stereo not shown) [Example 396]
6,> 8.60,COCC[S+]([O-])c1sc2nc(-c3cnn(C)c(=O)c3)cc(-c3ccccc3)c2c1N (stereo not shown) [Example 397]
7,> 8.60,Cn1ncc(-c2cc(C3CCC3)c3c(N)c([S+]([O-])C4CCC4)sc3n2)cc1=O (stereo not shown) [Example 398]
8,> 8.60,COCC[S+]([O-])c1sc2nc(-c3cnc4ncnn4c3)cc(-c3ccccc3)c2c1N (stereo not shown) [Example 399]
9,> 8.60,COCC[S+]([O-])c1sc2nc(-c3cnc4ncnn4c3)cc(C3CCC3)c2c1N (stereo not shown) [Example 400]
10,> 8.60,Nc1c([S+]([O-])C2CCC2)sc2nc(-c3cnc4ncnn4c3)cc(-c3ccccc3)c12 (stereo not shown) [Example 401]
11,> 8.60,Nc1c([S@+]([O-])C2CCC2)sc2nc(-c3cnc4ncnn4c3)cc(-c3ccccc3)c12 [Example 402]
12,≤ 8.00,Nc1c([S@@+]([O-])C2CCC2)sc2nc(-c3cnc4ncnn4c3)cc(-c3ccccc3)c12 [Example 403]
13,> 8.60,COCC[S+]([O-])c1sc2nc(-c3cnc4ncn(C)c4c3)cc(C3CC3)c2c1N (stereo not shown) [Example 404]
14,> 8.60,COCC[S@@+]([O-])c1sc2nc(-c3cnc4ncn(C)c4c3)cc(C3CC3)c2c1N [Example 405]
15,≤ 8.00,COCC[S@+]([O-])c1sc2nc(-c3cnc4ncn(C)c4c3)cc(C3CC3)c2c1N [Example 406]
16,> 8.60,Cn1cnc2ncc(-c3cc(C4CC4)c4c(N)c([S+]([O-])C5CCC5)sc4n3)cc21 (stereo not shown) [Example 407]
17,> 8.60,COCC[S@@+]([O-])c1sc2nc(-c3cnc4nn(C)cc4c3)cc(C(C)C)c2c1N [Example 408]
18,> 8.60,Cn1cncc(-c2cc(C3CCC3)c3c(N)c([S+]([O-])C4CCC4)sc3n2)c1=O (stereo not shown) [Example 409]
19,8.00 to 8.60,Cn1cncc(-c2cc(-c3ccccc3)c3c(N)c([S+]([O-])C4CCC4)sc3n2)c1=O (stereo not shown) [Example 410]
20,8.00 to 8.60,CC1(O)CN(c2ncc(-c3cc(-c4ccccc4)c4c(N)c([S+]([O-])C5CCC5)sc4n3)cn2)C1 (stereo not shown) [Example 411]
21,> 8.60,Cn1cc(-c2cc(-c3ccc(OCCO)cc3)c3c(N)c([S+]([O-])C4CCC4)sc3n2)cn1 (stereo not shown) [Example 412]
22,> 8.60,Cn1cc(-c2cc(-c3ccc(OCCO)cc3)nc3sc([S+]([O-])C4CCC4)c(N)c23)cn1 (stereo not shown) [Example 413]

row,pIC50,Compound
1,> 8.60,Nc1c([S+]([O-])C2CCC2)sc2nc(-c3cncnc3)cc(-c3ccn(C4CC4)n3)c12 (stereo not shown) [Example 414]
2,> 8.60,CN(C)c1cc(-c2cc(-c3cnc(N)nc3)nc3sc([S@+]([O-])C4CCC4)c(N)c23)n(C)n1 [Example 415]
3,≤ 8.00,Nc1c([S+]([O-])C2CCC2)sc2nc(-c3ccnn3C3CC3)cc(-c3cncnc3)c12 (stereo not shown) [Example 416]
4,> 8.60,COCC[S+]([O-])c1sc2nc(-c3cnc4nn(C)cc4c3)cc(C(F)(F)F)c2c1N (stereo not shown) [Example 417]
5,> 8.60,COCC[S@@+]([O-])c1sc2nc(-c3cnc4nn(C)cc4c3)cc(C(F)(F)F)c2c1N [Example 418]
6,≤ 8.00,COCC[S@+]([O-])c1sc2nc(-c3cnc4nn(C)cc4c3)cc(C(F)(F)F)c2c1N [Example 419]
7,> 8.60,COCCC[S+]([O-])c1sc2nc(-c3cnc4nn(C)cc4c3)cc(C(F)(F)F)c2c1N (stereo not shown) [Example 420]
8,> 8.60,Cn1cc2cc(-c3cc(C(F)(F)F)c4c(N)c([S+]([O-])C5CCC5)sc4n3)cnc2n1 (stereo not shown) [Example 421]
9,≤ 8.00,Cn1cc2cc(-c3cc(C(F)(F)F)c4c(N)c([S@@+]([O-])C5CCC5)sc4n3)cnc2n1 [Example 422]
10,> 8.60,Cn1cc2cc(-c3cc(C(F)(F)F)c4c(N)c([S@+]([O-])C5CCC5)sc4n3)cnc2n1 [Example 423]
11,> 8.60,COCC[S+]([O-])c1sc2nc(-c3cnc(N4CCOCC4)nc3)cc(C(F)(F)F)c2c1N (stereo not shown) [Example 424]
12,8.00 to 8.60,COCCC[S+]([O-])c1sc2nc(-c3cnc(N4CCOCC4)nc3)cc(C(F)(F)F)c2c1N (stereo not shown) [Example 425]
13,> 8.60,COCC[S+]([O-])c1sc2nc(-c3cnn(C)c3)cc(C(F)(F)F)c2c1N (stereo not shown) [Example 426]
14,> 8.60,COCCC[S+]([O-])c1sc2nc(-c3cnn(C)c3)cc(C(F)(F)F)c2c1N (stereo not shown) [Example 427]
15,> 8.60,Cn1cc(-c2cc(C(F)(F)F)c3c(N)c([S+]([O-])C4CCC4)sc3n2)cn1 (stereo not shown) [Example 428]
16,8.00 to 8.60,Nc1ncc(-c2cc(C(F)(F)F)c3c(N)c([S+]([O-])C4CCC4)sc3n2)cn1 (stereo not shown) [Example 429]
17,> 8.60,COCC[S+]([O-])c1sc2nc(-c3cnc(N)nc3)nc(-c3ccccc3)c2c1N (stereo not shown) [Example 430]
18,8.00 to 8.60,Nc1c([S+]([O-])C2CCC2)sc2nc(-c3cnc(NCCO)nc3)nc(-c3ccccc3)c12 (stereo not shown) [Example 431]
19,8.00 to 8.60,COCC[S+]([O-])c1sc2nc(-c3cnc(NCCO)nc3)nc(-c3ccccc3)c2c1N (stereo not shown) [Example 432]
20,> 8.60,COCC[S@@+]([O-])c1sc2nc(-c3cnc4nn(C)cc4c3)nc(-c3ccccc3)c2c1N [Example 433]
21,≤ 8.00,COCC[S@+]([O-])c1sc2nc(-c3cnc4nn(C)cc4c3)nc(-c3ccccc3)c2c1N [Example 434]
